Measured values as given in patent publication US20260355212A1 (priority 2022, published 2026).
Where two headings read alike, the source gives them in different places.

Target: SARS-CoV-2 Mpro (Severe acute respiratory syndrome coronavirus 2, UniProt P0DTD1)
Assay: SARS-CoV-2 Mpro enzymatic inhibition assay (fluorescence)
Type: biochemical
Method: The hCoV Mpro are cloned, expressed in E. coli and purified by WuXi AppTec Co., Ltd. The substrate are synthesized by Genscript Biotech.
Compounds are 3 fold serially diluted for 10 doses and added to an assay plate (384w format) using ECHO, in duplicate wells. The test concentration of test compounds is defined by sponsor.
25 μL of Mpro proteins are added to the assay plates containing compounds, respectively, using Multidrop. The compounds and Mpro proteins are pre-incubated at room temperature for 30 min. Then 5 µL of Mpro substrates are added to the related assay plates, respectively.
After 60 min incubation at 30° C., the fluorescence signal (RFU) is detected using a microplate reader M2e (SpectraMax) at Ex/Em=340 nm/490 nm.
The inhibition activity is calculated using the formula below, IC50 values will be calculated using the Inhibition % data.
IC50 values of compounds are calculated with the GraphPad Prism software using the nonlinear regression model of log(inhibitor) vs. response—Variable slope (four parameters).

In the case of CC1(C)[C@@H]2[C@@H](C(=O)N[C@@H](C[C@@H]3CCNC3=O)C(=O)C(=O)NC3CC3)N(C(=O)C3(c4ccccc4)CC3)C[C@@H]21 [Compound 119, (1R,2S,5S)—N—((S)-4-(cyclopropylamino)-3,4-dioxo-1-((S)-2-oxopyrrolidin-3-yl)butan-2-yl)-6,6-dimethyl-3-(1-phenylcyclopropanecarbonyl)-3-azabicyclo[3.1.0]hexane-2-carboxamide], the IC50 is reported as 143 nM.

Work on CC1(C)[C@@H]2[C@@H](C(=O)N[C@@H](C[C@@H]3CCNC3=O)C(=O)C(=O)NC3CC3)N(C(=O)C3(c4ccccc4)CCCC3)C[C@@H]21 [Compound 99, (1R,2S,5S)—N—((S)-4-(Cyclopropylamino)-3,4-dioxo-1-((S)-2-oxopyrrolidin-3-yl)butan-2-yl)-6,6-dimethyl-3-(1-phenylcyclopentanecarbonyl)-3-azabicyclo[3.1.0]hexane-2-carboxamide] yielded an IC50 of 51.4 nM.

Molecule COc1cc2[nH]c(C(=O)N3C[C@H]4[C@@H]([C@H]3C(=O)N[C@H](C=O)C[C@@H]3CCNC3=O)C4(C)C)cc2cc1F [Compound 101, (1R,2S,5S)-3-(5-Fluoro-6-methoxy-1H-indole-2-carbonyl)-6,6-dimethyl-N—((S)-1-oxo-3-((S)-2-oxopyrrolidin-3-yl)propan-2-yl)-3-azabicyclo[3.1.0]hexane-2-carboxamide] has an IC50 of 56.3 nM.

CC(C)(C)[C@H](NC(=O)c1cc2ccccc2[nH]1)C(=O)N1C[C@H]2[C@@H]([C@H]1C(=O)N[C@@H](C[C@@H]1CCNC1=O)C(=O)C(N)=O)C2(C)C [Compound 116, N—((S)-1-((1R,2S,5S)-2-(((S)-4-amino-3,4-dioxo-1-((S)-2-oxopyrrolidin-3-yl)butan-2-yl)carbamoyl)-6,6-dimethyl-3-azabicyclo[3.1.0]hexan-3-yl)-3,3-dimethyl-1-oxobutan-2-yl)-1H-indole-2-carboxamide] showed an IC50 of 118 nM.

For CCOc1cccc2[nH]c(C(=O)N3C[C@H]4[C@@H]([C@H]3C(=O)N[C@H](C=O)C[C@@H]3CCNC3=O)C4(C)C)cc12 [Compound 70, (1R,2S,5S)-3-(4-Ethoxy-1H-indole-2-carbonyl)-6,6-dimethyl-N—((S)-1-oxo-3-((S)-2-oxopyrrolidin-3-yl)propan-2-yl)-3-azabicyclo[3.1.0]hexane-2-carboxamide], the IC50 was 30.1 nM.

CC1(C)C[C@@H](C(=O)N[C@H](C=O)C[C@@H]2CCNC2=O)N(C(=O)c2cc3ccccc3[nH]2)C1 [Compound 57, (S)-1-(1H-Indole-2-carbonyl)-4,4-dimethyl-N—((S)-1-oxo-3-((S)-2-oxopyrrolidin-3-yl)propan-2-yl)pyrrolidine-2-carboxamid] gave an IC50 (mean, 25 nM protein, 25 μM substrate, 30 min pre-incubation, 60 min at 30° C., read-out: Mpro_SARS-CoV-2 mean IC50) of 25.8 nM.

CC(C)Oc1cccc2[nH]c(C(=O)N3C[C@H]4[C@@H]([C@H]3C(=O)N[C@H](C=O)C[C@@H]3CCNC3=O)C4(C)C)cc12 [Compound 66, (1R,2S,5S)-3-(4-Isopropoxy-1H-indole-2-carbonyl)-6,6-dimethyl-N—((S)-1-oxo-3-((S)-2-oxopyrrolidin-3-yl)propan-2-yl)-3-azabicyclo[3.1.0]hexane-2-carboxamide] showed an IC50 of 27.6 nM.

In the case of O=C[C@H](C[C@@H]1CCNC1=O)NC(=O)[C@@H]1C[C@@H](Oc2ccccc2)CN1C(=O)c1cc2ccccc2[nH]1 [Compound 133, (2S,4R)-1-(1H-Indole-2-carbonyl)-N—((S)-1-oxo-3-((S)-2-oxopyrrolidin-3-yl)propan-2-yl)-4-phenoxypyrrolidine-2-carboxamide], the IC50 is reported as 443 nM.

With CC1(C)[C@@H]2[C@@H](C(=O)N[C@H](C=O)C[C@@H]3CCNC3=O)N(C(=O)c3cc4ccc(Cl)cc4[nH]3)C[C@@H]21 [Compound 42, (1R,2S,5S)-3-(6-Chloro-1H-indole-2-carbonyl)-6,6-dimethyl-N—((S)-1-oxo-3-((S)-2-oxopyrrolidin-3-yl)propan-2-yl)-3-azabicyclo[3.1.0]hexane-2-carboxamide] the IC50 was 22.1 nM.

O=C[C@H](C[C@@H]1CCNC1=O)NC(=O)[C@@H]1CC2(CC2)CN1C(=O)c1cc2cccc(F)c2[nH]1 [Compound 87, (S)-5-(7-Fluoro-1H-indole-2-carbonyl)-N—((S)-1-oxo-3-((S)-2-oxopyrrolidin-3-yl)propan-2-yl)-5-azaspiro[2.4]heptane-6-carboxamide] showed an IC50 of 40.1 nM.

CC1(C)[C@@H]2[C@@H](C(=O)N[C@@H](C[C@@H]3CCNC3=O)C(=O)C(=O)NC3CC3)N(C(=O)C3(c4cccc(Cl)c4)CC3)C[C@@H]21 [Compound 45, (1R,2S,5S)-3-(1-(3-Chlorophenyl)cyclopropanecarbonyl)-N—((S)-4-(cyclopropylamino)-3,4-dioxo-1-((S)-2-oxopyrrolidin-3-yl)butan-2-yl)-6,6-dimethyl-3-azabicyclo[3.1.0]hexane-2-carboxamide] showed an IC50 of 22.5 nM.

With CC1(C)[C@@H]2[C@@H](C(=O)N[C@H](C=O)C[C@@H]3CCNC3=O)N(C(=O)c3cc4ccc(C(F)(F)F)cc4[nH]3)C[C@@H]21 [Compound 96] the IC50 was 49.2 nM.

Molecule COc1ccc2[nH]c(C(=O)N3C[C@H]4[C@@H]([C@H]3C(=O)N[C@H](C=O)C[C@@H]3CCNC3=O)C4(C)C)cc2c1 [Compound 68, (1R,2S,5S)-3-(5-Methoxy-1H-indole-2-carbonyl)-6,6-dimethyl-N—((S)-1-oxo-3-((S)-2-oxopyrrolidin-3-yl)propan-2-yl)-3-azabicyclo[3.1.0]hexane-2-carboxamide] has an IC50 of 28 nM.

CC1(C)[C@@H]2[C@@H](C(=O)N[C@H](C=O)C[C@@H]3CCNC3=O)N(C(=O)c3cc4cc(Cl)cc(Cl)c4[nH]3)C[C@@H]21 [Compound 44, (1R,2S,5S)-3-(5,7-Dichloro-1H-indole-2-carbonyl)-6,6-dimethyl-N—((S)-1-oxo-3-((S)-2-oxopyrrolidin-3-yl)propan-2-yl)-3-azabicyclo[3.1.0]hexane-2-carboxamide] was tested, and the IC50 was 22.2 nM.

O=C[C@H](C[C@@H]1CCNC1=O)NC(=O)[C@@H]1C[C@H](C2CCCCC2)CN1C(=O)c1cc2ccccc2[nH]1 [Compound 103, (2S,4R)-4-cyclohexyl-1-(1H-Indole-2-carbonyl)-N—((S)-1-oxo-3-((S)-2-oxopyrrolidin-3-yl)propan-2-yl)pyrrolidine-2-carboxamide] showed an IC50 of 63.9 nM.

In the case of CC1CCC(CC(=O)N2C[C@H]3[C@@H]([C@H]2C(=O)N[C@@H](C[C@@H]2CCNC2=O)C(=O)C(=O)NC2CC2)C3(C)C)CC1 (stereo partly drawn) [Compound 105, (1R,2S,5S)—N—((S)-4-(Cyclopropylamino)-3,4-dioxo-1-((S)-2-oxopyrrolidin-3-yl)butan-2-yl)-6,6-dimethyl-3-(2-(4-methylcyclohexyl)acetyl)-3-azabicyclo[3.1.0]hexane-2-carboxamide], the IC50 is reported as 73.2 nM.

CC1(C)[C@@H]2[C@@H](C(=O)N[C@H](C=O)C[C@@H]3CCNC3=O)N(C(=O)c3cc4c(C5CC5)cccc4[nH]3)C[C@@H]21 [Compound 41, (1R,2S,5S)-3-(4-Cyclopropyl-1H-indole-2-carbonyl)-6,6-dimethyl-N—((S)-1-oxo-3-((S)-2-oxopyrrolidin-3-yl)propan-2-yl)-3-azabicyclo[3.1.0]hexane-2-carboxamide] showed an IC50 of 21.8 nM.

For O=C[C@H](C[C@@H]1CCNC1=O)NC(=O)[C@@H]1C[C@H](Oc2ccccc2)CN1C(=O)c1cc2ccccc2[nH]1 [Compound 134, (2S,4S)-1-(1H-Indole-2-carbonyl)-N—((S)-1-oxo-3-((S)-2-oxopyrrolidin-3-yl)propan-2-yl)-4-phenoxypyrrolidine-2-carboxamide], the IC50 was 451 nM.

N#Cc1cccc2cc(C(=O)N3CC4(CC4)C[C@H]3C(=O)N[C@H](C=O)C[C@@H]3CCNC3=O)[nH]c12 [Compound 46, (S)-5-(7-cyano-1H-indole-2-carbonyl)-N—((S)-1-oxo-3-((S)-2-oxopyrrolidin-3-yl)propan-2-yl)-5-azaspiro[2.4]heptane-6-carboxamide] was tested, and the IC50 was 22.5 nM.

For CC1(C)[C@@H]2[C@@H](C(=O)N[C@H](C=O)C[C@@H]3CCNC3=O)N(C(=O)c3cc4c(F)c(Cl)ccc4[nH]3)C[C@@H]21 [Compound 117, (1R,2S,5S)-3-(5-Chloro-4-fluoro-1H-indole-2-carbonyl)-6,6-dimethyl-N—((S)-1-oxo-3-((S)-2-oxopyrrolidin-3-yl)propan-2-yl)-3-azabicyclo[3.1.0]hexane-2-carboxamide], the IC50 was 126 nM.
